Experimental data as given in US7951829B2, “Benzimidazole modulators of VR1” (Janssen Pharmaceutica NV, priority 2006, dated 2011).

Molecular target: T1, hVR1 (Homo sapiens, UniProt Q8NER1)
T1 construct: expressed in transfected cells; host or cells: HEK293
Assay: Human VR1 (hVR1) Functional Assay (FLIPR intracellular calcium, capsaicin challenge)
Type: cell-based
Conditions: capsaicin 0.030 μM, HEK293 cells expressing hVR1; for inhibition at 1 µM: test concentration 1 μM

T1 sequence (Q8NER1 whole entry): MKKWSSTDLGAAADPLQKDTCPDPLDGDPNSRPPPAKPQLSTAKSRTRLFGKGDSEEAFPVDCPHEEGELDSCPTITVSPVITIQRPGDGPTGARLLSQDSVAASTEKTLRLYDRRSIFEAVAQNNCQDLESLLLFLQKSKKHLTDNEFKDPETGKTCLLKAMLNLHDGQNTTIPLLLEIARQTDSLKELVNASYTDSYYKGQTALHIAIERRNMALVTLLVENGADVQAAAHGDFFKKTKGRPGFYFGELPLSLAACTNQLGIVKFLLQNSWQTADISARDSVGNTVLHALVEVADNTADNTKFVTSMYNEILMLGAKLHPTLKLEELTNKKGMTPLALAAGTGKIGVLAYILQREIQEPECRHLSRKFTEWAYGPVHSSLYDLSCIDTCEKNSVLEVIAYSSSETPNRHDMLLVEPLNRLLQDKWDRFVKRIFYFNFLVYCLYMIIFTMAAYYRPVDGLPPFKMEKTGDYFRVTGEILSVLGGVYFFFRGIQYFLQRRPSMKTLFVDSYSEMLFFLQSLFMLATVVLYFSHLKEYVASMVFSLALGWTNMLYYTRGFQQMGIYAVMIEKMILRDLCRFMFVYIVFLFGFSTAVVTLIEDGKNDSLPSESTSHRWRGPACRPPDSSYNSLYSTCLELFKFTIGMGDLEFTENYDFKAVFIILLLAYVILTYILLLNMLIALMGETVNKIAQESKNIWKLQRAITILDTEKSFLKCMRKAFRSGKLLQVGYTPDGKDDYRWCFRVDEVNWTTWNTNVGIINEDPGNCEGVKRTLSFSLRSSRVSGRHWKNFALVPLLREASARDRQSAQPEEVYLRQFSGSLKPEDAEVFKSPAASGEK

IC50 [nM]	inhibition at 1 µM [%]	SMILES
24	101	CNS(=O)(=O)c1ccccc1-c1ccc2[nH]c(/C=C/c3cccc(OC(F)(F)F)c3)nc2c1 [Cpd 344, (E)-N-methyl-2-{2-[2-(3-trifluoromethoxy-phenyl)-vinyl]-1H-benzimidazol-5-yl}-benzenesulfonamide]
62	98	CNS(=O)(=O)c1ccccc1-c1ccc2[nH]c(/C=C/c3ccc(Cl)cc3S(C)(=O)=O)nc2c1 [Cpd 340, (E)-2-{2-[2-(4-chloro-2-methanesulfonyl-phenyl)-vinyl]-1H-benzimidazol-5-yl}-N-methyl-benzenesulfonamide]
10	97	NS(=O)(=O)c1ccccc1-c1ccc2[nH]c(CCc3ccc(F)cc3F)nc2c1 [Cpd 392, 2-{2-[2-(2,4-difluoro-phenyl)-ethyl]-1H-benzimidazol-5-yl}-benzenesulfonamide]
> 500	–	Oc1ccccc1-c1ccc2[nH]c(C3CC3c3ccc(C(F)(F)F)cc3)nc2c1 (centres unmarked) [Cpd 472, 2-{2-[2-(4-trifluoromethyl-phenyl)-cyclopropyl]-1H-benzimidazol-5-yl}-phenol]
–	0	CS(=O)(=O)Nc1ccccc1-c1cc2nc(/C=C/c3ccc(C(F)(F)F)cc3)[nH]c2cc1F [Cpd 65, (E)-N-(2-{6-fluoro-2-[2-(4-trifluoromethyl-phenyl)-vinyl]-1H-benzimidazol-5-yl}-phenyl)-methanesulfonamide]
–	64	CS(=O)(=O)Nc1ccccc1-c1ccc2[nH]c(/C=C/c3ccc(F)c(Cl)c3)nc2c1 [Cpd 408, (E)-N-(2-{2-[2-(3-chloro-4-fluoro-phenyl)-vinyl]-1H-benzimidazol-5-yl}-phenyl)-methanesulfonamide]
139	97	CS(=O)(=O)c1cc(Cl)ccc1/C=C/c1nc2cc(-c3ccccc3S(N)(=O)=O)ccc2[nH]1 [Cpd 375, (E)-2-{2-[2-(4-chloro-2-methanesulfonyl-phenyl)-vinyl]-1H-benzimidazol-5-yl}-benzenesulfonamide]
40	98	CCOc1ccc(/C=C/c2nc3cc(-c4ccccc4S(N)(=O)=O)ccc3[nH]2)cc1 [Cpd 440, (E)-2-{2-[2-(4-ethoxy-phenyl)-vinyl]-1H-benzimidazol-5-yl}-benzenesulfonamide]
240	89	CNS(=O)(=O)c1ccccc1-c1ccc2[nH]c(/C=C/c3c(F)cccc3Cl)nc2c1 [Cpd 336, (E)-2-{2-[2-(2-chloro-6-fluoro-phenyl)-vinyl]-1H-benzimidazol-5-yl}-N-methyl-benzenesulfonamide]
13	101	CNS(=O)(=O)c1ccccc1-c1ccc2[nH]c(/C=C/c3ccc(OC(F)(F)F)cc3)nc2c1 [Cpd 345, (E)-N-methyl-2-{2-[2-(4-trifluoromethoxy-phenyl)-vinyl]-1H-benzimidazol-5-yl}-benzenesulfonamide]
27	98	CNS(=O)(=O)c1ccccc1-c1ccc2[nH]c(/C=C/c3cc(C(F)(F)F)cc(C(F)(F)F)c3)nc2c1 [Cpd 333, (E)-2-{2-[2-(3,5-bis-trifluoromethyl-phenyl)-vinyl]-1H-benzimidazol-5-yl}-N-methyl-benzenesulfonamide]
–	5	CNS(=O)(=O)c1ccccc1-c1ccc2[nH]c(/C=C/c3ccc(NC(C)=O)cc3)nc2c1 [Cpd 452, (E)-N-(4-{2-[5-(2-methylsulfamoyl-phenyl)-1H-benzimidazol-2-yl]-vinyl}-phenyl)-acetamide]
76	97	NS(=O)(=O)c1cc(C(F)(F)F)ccc1-c1ccc2[nH]c(/C=C/c3ccc(C(F)(F)F)cc3)nc2c1 [Cpd 446, (E)-5-trifluoromethyl-2-{2-[2-(4-trifluoromethyl-phenyl)-vinyl]-1H-benzimidazol-5-yl}-benzenesulfonamide]
> 500	–	CNS(=O)(=O)c1ccccc1-c1ccc2[nH]c(/C=C/c3ccc(S(C)(=O)=O)cc3)nc2c1 [Cpd 351, (E)-2-{2-[2-(4-methanesulfonyl-phenyl)-vinyl]-1H-benzimidazol-5-yl}-N-methyl-benzenesulfonamide]
–	12	CC(C)(C)c1ccc(/C=C/c2nc3cc(-c4cccc(C(N)=O)c4)ccc3[nH]2)cc1 [Cpd 6, (E)-3-{2-[2-(4-tert-butyl-phenyl)-vinyl]-1H-benzimidazol-5-yl}-benzamide]
–	10	CC(C)(C)c1ccc(/C=C/c2nc3cc(-c4ccc(C(N)=O)cc4)ccc3[nH]2)cc1 [Cpd 7, (E)-4-{2-[2-(4-tert-butyl-phenyl)-vinyl]-1H-benzimidazol-5-yl}-benzamide]
8	97	CC(C)(O)c1ccccc1-c1ccc2[nH]c(/C=C/c3ccccc3)nc2c1 [Cpd 468, (E)-2-[2-(2-styryl-1H-benzimidazol-5-yl)-phenyl]-propan-2-ol]
–	12	CC(C)(C)OC(=O)Nc1ccccc1-c1ccc2[nH]c(/C=C/c3ccc(C(F)(F)F)cc3)nc2c1 [Cpd 479, (E)-(2-{2-[2-(4-trifluoromethyl-phenyl)-vinyl]-1H-benzimidazol-5-yl}-phenyl)-carbamic acid tert-butyl ester]
–	6	NC(=O)c1ccccc1-c1ccc2[nH]c(/C=C/c3ccc(F)c(F)c3)nc2c1 [Cpd 26, (E)-2-{2-[2-(3,4-difluoro-phenyl)-vinyl]-1H-benzimidazol-5-yl}-benzamide]
> 500	–	CS(=O)(=O)Nc1ccccc1-c1ccc2[nH]c(/C=C/c3ccc(S(C)(=O)=O)cc3)nc2c1 [Cpd 83, (E)-N-(2-{2-[2-(4-methanesulfonyl-phenyl)-vinyl]-1H-benzimidazol-5-yl}-phenyl)-methanesulfonamide]
12	99	NS(=O)(=O)c1ccccc1-c1ccc2[nH]c(/C=C/c3ccc(SC(F)(F)F)cc3)nc2c1 [Cpd 380, (E)-2-{2-[2-(4-trifluoromethylsulfanyl-phenyl)-vinyl]-1H-benzimidazol-5-yl}-benzenesulfonamide]
11	101	CNS(=O)(=O)c1ccccc1-c1ccc2[nH]c(/C=C/c3ccc(F)c(Br)c3)nc2c1 [Cpd 317, (E)-2-{2-[2-(3-bromo-4-fluoro-phenyl)-vinyl]-1H-benzimidazol-5-yl}-N-methyl-benzenesulfonamide]
–	21	CC(C)(C)C(=O)Nc1ccccc1-c1ccc2[nH]c(/C=C/c3ccc(C(F)(F)F)cc3)nc2c1 [Cpd 460, (E)-2,2-dimethyl-N-(2-{2-[2-(4-trifluoromethyl-phenyl)-vinyl]-1H-benzimidazol-5-yl}-phenyl)-propionamide]
77	–	NS(=O)(=O)NCc1ccccc1-c1ccc2[nH]c(/C=C/c3ccc(C(F)(F)F)cc3)nc2c1 [Cpd 491, (E)-5-(2-aminosulfonylamino-methylphenyl)-2-[2-(4-trifluoromethyl-phenyl)-vinyl]-1H-benzimidazole]
59	99	CNS(=O)(=O)c1ccccc1-c1ccc2[nH]c(/C=C/c3ccc(F)cc3F)nc2c1 [Cpd 349, (E)-2-{2-[2-(2,4-difluoro-phenyl)-vinyl]-1H-benzimidazol-5-yl}-N-methyl-benzenesulfonamide]
